# According to paper PMC3454511 (The Journal of organic chemistry, 2012):
# Assays:
# [1] = Solubility in PBS and H2O, dry powder, 24 hour timepoint
# [2] = Plasma protein binding by rapid-equilibrium dialysis, human; settings: 37 °C for 5 h
# [3] = Microsomal stability, mouse; settings: % parent remaining at 1 hour
# [4] = Plasma protein binding by rapid-equilibrium dialysis, mouse; settings: 37 °C for 5 h
# [5] = Microsomal stability, human; settings: % parent remaining at 1 hour
# [6] = Hepatocyte stability, human; settings: % parent remaining at 2 hour
# [7] = Plasma stability, human; settings: % parent remaining at 5 h
# [8] = BBB parallel artificial membrane permeability assay; assay type: in vitro ADME; settings: for BBB PAMPA: Pe
# [9] = tested on: Caco-2 monolayer; test: Bidirectional Caco-2 permeability; assay type: in vitro ADME; settings: for Caco-2 A-B: A-B direction; for Caco-2 B-A: B-A direction
# [10] = Plasma stability, mouse; settings: % parent remaining at 5 h
# [11] = Hepatocyte stability, mouse; settings: % parent remaining at 2 hour
# [12] = physchem; settings: thermodynamic from solid
# [13] = Bidirectional Caco-2 permeability; assay type: in vitro ADME; settings: human, Caco-2
Compound,solubility H2O [1],solubility PBS [1],protein binding human [2],microsomal stability mouse [3],protein binding mouse [4],microsomal stability human [5],hepatocytes human [6],plasma stability human [7],BBB PAMPA [8],Caco-2 A-B [9],Caco-2 B-A [9],plasma stability mouse [10],hepatocytes mouse [11],Papp ([8]; PAMPA),"solubility at 24 h ([12]; PBS, aqueous buffer)",solubility at 24 h ([12]; water),Papp A→B [13],Papp B→A [13]
"CCCN1C(CO)C2c3ccccc3N(C(C)=O)CC21 (racemic) [31b, 1-((±)-1-(Hydroxymethyl)-2-propyl-1,2a,3,8b-tetrahydroazeto[2,3-c]quinolin-4 (2H)-yl) ethanone]",496 µM,489 µM,18 % bound,64 % remaining,20 % bound,88 % remaining,32 % remaining,106 % remaining,14 10^−6 cm s^−1,48 10^−6 cm.s^−1,51 10^−6 cm.s^−1,98 % remaining,71 % remaining,,,,,
"CCCN1[C@H](CO)[C@H](c2ccccc2)[C@@H]1CN [26b, ((2S,3R,4R)-4-(Aminomethyl)-3-phenyl-1-propylazetidin-2-yl)methanol]",>500 µM,>500 µM,7 % bound,68 % remaining,19 % bound,73 % remaining,103 % remaining,92 % remaining,83 10^−6 cm s^−1,16 10^−6 cm.s^−1,8 10^−6 cm.s^−1,100 % remaining,103 % remaining,,,,,
CCCN1C2CN(C(C)=O)CC1C2c1ccccc1 (stereo not shown) [27b],483 µM,476 µM,23 % bound,93 % remaining,13 % bound,93 % remaining,104 % remaining,83 % remaining,15 10^−6 cm s^−1,54 10^−6 cm.s^−1,56 10^−6 cm.s^−1,94 % remaining,94 % remaining,,,,,
"OC[C@@H]1[C@H](c2ccc(Br)cc2)[C@@H]2CNCCCCN12 [29a, ((8R,9R,10S)-9-(4-Bromophenyl)-1,6-diazabicyclo[6.2.0]decan-10-yl) methanol]",,,24 % bound,98 % remaining,46 % bound,96 % remaining,104 % remaining,97 % remaining,,,,94 % remaining,99 % remaining,14 ×10⁻⁶ cm/s,485 µM,388 µM,14 ×10⁻⁶ cm/s,32 ×10⁻⁶ cm/s
